The values that follow come from patent US11382889B2, “NRF2 activators for the prevention and/or treatment of axonal degeneration” (priority 2018, dated 2022).

Series [1] is described as follows: Tolerability of dietary DMF in mice (weight, food intake, adverse events). Conditions: DMF 100 mg/kg/day in chow. From the text:
We used male mice of a pure C57BL/6J background. All methods employed in this study were in accordance with the Guide for the Care and Use of Laboratory Animals (Guide, 8th edition, 2011, NIH) and European (2010/63/UE) and Spanish (RD 53/2013) legislation. Experimental protocol had been approved by IDIBELL, IACUC (Institutional Animal Care and Use Committee) and regional authority (3546 DMAH, Generalitat de Catalunya, Spain). IDIBELL animal facility has been accredited by The Association for Assessment and Accreditation of Laboratory Animal Care (AAALAC, Unit 1155). Animals were housed at 22° C. on specific-pathogen free conditions, in a 12-hour light/dark cycle, and ad libitum access to food and water. Cages contained 3 to 5 animals.
DMF was mixed into AIN-76A chow from Dyets (Bethlehem, Pa., USA) to provide a dose of 100 mg/kg/day. Human equivalent dose would be 8 mg/kg/day ([…] in a typical 60 kg person). This is equivalent to the starting dose of BG-12/Tecfidera that is 120 mg twice a day for MS patients (EMA/204830/2013).
For the characterization of biochemical signs on adult X-ALD mice, 8-months-old animals were randomly assigned to one of the following dietary groups for 4 months.
Group I: wild-type (WT) mice received normal AIN-76A chow (n=12); group II: Abcd1^− mice received normal AIN-76A chow (n=12); group III: Abcd1^− mice received AIN-76A chow containing DMF (n=12). To evaluate the effect of DMF on the clinical signs of AMN-like pathology, 12-months-old animals were randomly assigned to one of the following dietary groups for 6 months. Group I: WT mice received normal AIN-76A chow (n=14); group II: Abcd1^−/Abcd2^−/− mice received normal AIN-76A chow (n=16); group III: Abcd1^−/Abcd2^−/− mice received AIN-76A chow containing DMF (n=14).

Series [2] has as its system NRF2. Nature of the series: NRF2 protein levels and NRF2-target gene expression in Abcd1− mice spinal cord after dietary DMF. It is filed as in vivo. Particulars: 12 months of age, DMF 100 mg/kg/day in chow for 4 months. From the text:
a) NRF2 protein levels in WT (n=6), Abcd1^− (n=6) and DMF-treated Abcd1^− mice (Abcd1^−+DMF, n=6) mice spinal cord at 12 months of age. Protein levels were normalized relative to γ-TUB and quantification is depicted as fold change to WT (Wild type) mice. b) NRF2-dependent antioxidative genes (Hmox1, Nqo1 and Gst α 3) expression in WT (n=8), Abcd1^− (n=8) and Abcd1^−+DMF (n=8) mice spinal cord at 12 months of age. Gene expression levels were normalized relative to Rplp0. Quantification is represented as fold change to WT mice. c) Mitochondrial DNA (mtDNA) levels in WT (n=8), Abcd1^− (n=8) and Abcd1^−+DMF (n=8) mice spinal cord at 12 months of age. mtDNA content was measured by quantitative RT-PCR and expressed as the ratio of mtDNA (CytB levels) to nuclear DNA (nDNA, Cebpa levels). Quantification is depicted as fold change to WT mice. d) Sirt1, Pgc-1α, Nrf1 and Tfam expression was measured by quantitative RT-PCR in WT (n=8), Abcd1^− (n=8) and Abcd1^−+DMF (n=8) mice spinal cord at 12 months of age. Gene expression levels were normalized relative to Rplp0. Quantification is depicted as fold change to WT mice. e) ATP levels in WT (n=8), Abcd1^− (n=8) and Abcd1^−+DMF (n=8) mice spinal cord at 12 months of age. Quantification is represented as fold change to WT mice. […]

Setting [3] is: any treatment protocol (4 or 6 months).

Molecules are shown by their SMILES. Where a name gives a salt, the structure may show the parent alone.

On to `COC(=O)/C=C/C(=O)OC` [DMF, dimethyl fumarate], for which the “adverse events or death during treatment” value in series [1] (4 or 6 months) is listed as “none of the mice administered with DMF experienced any adverse events or death”. For the same molecule, in series [1] (setting [3]), the “effect on food intake” value was “no effect” and the effect on weight result is reported as “no effect”. In addition, in series [2], the NRF2 protein levels entry was “induced” and the “NRF2 target genes expression (Hmox1, Nqo1, Gstα3)” value is given as “induced”.
